Legend:
[1] = RP-HPLC stability (decomposition) of 20-OR ester prodrugs in PBS pH 7.4; assay type: physicochemical
Text: CPT glycinate fragmentation pattern [m/z(%)] was: 406 (25%), 331 (100%), 303 (30%); CPT ortho lactone fragmentation pattern was: 406 (100%), 388 (40%), 303 (20%). […] HPLC data for each analog studied was consistent with the generation of the novel decomposition products, along with the lactone and carboxylate forms of the parent drug. […] N-methyl CPT glycinate fragmentation pattern [m/z(%)] was: 420 (86%), 331 (100%), 303 (30%); CPT N-methyl ortho lactone fragmentation pattern was: 420 (100%), 402 (50%), 303 (37%). As in the case for the camptothecin glycinate ester, the novel degradation products were generated from the proposed lactam intermediate. Further evidence for proposed degradation products 3 and 4 includes: (1) Glycine carbonyl ^13C isotopic labeling NMR experiment in PBS showing that this carbon exists as a tetrahedral carbon as in 3. (2) Glycine ^15N isotopic labeling NMR experiments showing that 3 and 4 have amide bonds.

[2] = assay type: in vitro ADME, human; details: for prodrug decomposition: PBS pH 7.4, human plasma and blood, RP-HPLC
[3] = Stability of free and core-loaded liposomal prodrug in whole blood

CCC1(OC(=O)CCCN)C(=O)OCc2c1cc1n(c2=O)Cc2cc3ccccc3nc2-1 (stereo not drawn) [R=COCH2CH2CH2NH2, camptothecin 4-aminobutanoate ester]
half-life of decomposition ([1]; buffer, pH 7.4): 36.7 h

CCc1c2c(nc3ccc(O)cc13)-c1cc3c(c(=O)n1C2)COC(=O)C3(CC)OC(=O)CN (stereo not drawn) [SN-38 glycinate ester]
prodrug decomposition [2]: extensive chemical (i.e. non-enzymatic) decomposition

CC[C@@]1(OC(C)=O)C(=O)OCc2c1cc1n(c2=O)Cc2cc3ccccc3nc2-1 [camptothecin-20(S)-acetate, reference compound]
stability / hydrolysis ([2]; pH 7.4): excellent stability

CCC1(OC(=O)CN)C(=O)OCc2c1cc1n(c2=O)Cc2cc3ccccc3nc2-1 [camptothecin-20(S)-glycinate 1, camptothecin-20(S)-glycinate]
decomposition ([1]; 1 μM, PBS (pH 7.4), 37° C., within 3 hours): ~90% | prodrug decomposition [2]: extensive chemical (i.e. non-enzymatic) decomposition

DB-67 4-aminobutanoate ester
decomposition of free prodrug [3]: extensive
